# Like-named read-outs stand apart in the source and are kept apart here.
# What was measured:
# [1] = test system: T.b. brucei bloodstream form lister 427; assay: T.b. brucei Alamar Blue viability estimation assay (384-well HTS, retest and rescreen); format: cell-based, Trypanosoma brucei brucei; conditions: for IC50: Trypanosoma brucei
# Description: (§1) T.b. brucei lister 427 cells were maintained in log phase growth in 25 cm^2 tissue culture flasks (Corning, NY, USA) by sub-culturing at either 24 or 48 hour intervals. Cells were grown in HMI-9 medium, supplemented with 10% fetal calf serum (FCS) and 100 IU/ml penicillin/streptomycin (Invitrogen, Carlsbad, California, USA) with incubation at 5% CO2 at 37°C in humidified conditions. HEK293 cells were maintained in high glucose DMEM with L-glutamine, supplemented with 1× non-essential amino acids (NEAA; Invitrogen, USA) and 1 mM sodium pyruvate. Growth conditions were in 5% CO2 at 37°C, under humidified conditions.
# All reagent and cell additions were made with a Multidrop liquid handler (Thermo Scientific, Newington, NH, USA) under sterile conditions. Fifty-five microliters of 2000 cells/mL of T.b. brucei in HMI-9 medium were added to a black, clear-bottomed 384-well lidded plate (BD Biosciences, Franklin Lanes, NJ, USA). Cells were incubated for 24 hours at 37°C in an atmosphere of 5% CO2 before addition of 5 µl of compounds/DMSO for control wells. Compounds suspended in 100% DMSO or 100% DMSO as controls were pre-diluted 1∶21 in high glucose DMEM without FCS by using a Minitrack robotic liquid handler (PerkinElmer, Waltham, MA, USA). Five microliters of diluted sample was added to the plate to give a final DMSO concentration of 0.417% in the assay. Cells were incubated for an additional 48 hours at 37°C. Ten microliters of 70% Alamar Blue (Biosource, Bethesda, MD, USA) was added to each well (diluted in HMI-9 medium supplemented with 10% FCS) to a final concentration of 10% in the assay. The plate was incubated for two hours under the same conditions, then incubated for 22 hours in the dark at room temperature. Wells were read at 535 nm (excitation) and 590 nm (emission) wavelengths on a Victor II Wallac plate reader (PerkinElmer, USA). Specific dilutions are explained further in the primary and retest assay methodology. Reference drugs used in the assay were pentamidine (Sigma-Aldrich, St Louis, MO, USA), diminazene aceturate (Sigma-Aldrich, USA) and puromycin (Calbiochem, San Deigo, CA, USA). Pentamidine is used to treat patients with HAT and diminazene is a veterinary drug used against T.b. brucei to combat infections in cattle.
# Primary screening of the library, consisting of 87,296 compounds in two hundred and forty eight 384-well plates, was undertaken in single point against T.b. brucei. Stock solutions consisted of test compound at a concentration of 5 mM in 100% DMSO. One µl of each compound stock solution was diluted by the addition of 40 µl of dilution medium (high glucose DMEM without FCS) by a multidrop liquid handler (Thermo Scientific, USA). A 5 µl sample of this diluted solution was then added to the trypanosome assay plate. The final concentration of test compound in the assay was […] and that of DMSO was 0.42% v/v. Compounds were screened over a total of 11 days, at an average of 80 plates per day, taking into consideration that the assay incubation was 3 days total. Test compounds were added to plates in batches of 20 at two hour intervals, to maintain the timing of additions and reads.
# Compound activity was calculated as the percentage inhibition in relation to positive and negative controls. […] These in-plate negative controls were used in an effort to normalise compound activity in relation to any plate to plate variation in the assay signal. A whole 384-well control plate was included in each day's screening, one per 20 compound plates containing half a plate of 2 µM pentamidine for the positive assay control, and half a plate of 0.42% v/v DMSO as a negative control. The positive assay control was used to calculate compound activity for batches of 20 compound plates. As well providing the positive control data, these whole plate controls were used for the calculation of the Z' to measure the reproducibility of the assay.
# [2] = test system: HEK293 cells; assay: HEK293 Alamar Blue viability estimation assay; format: cell-based, human; conditions: pentamidine 1 µM, diminazene 40 µM
# Description: as §1
# Cells at 80% confluence were harvested and diluted in growth medium (high glucose DMEM supplemented with 10% FCS) to 7.27×10^4 cells/ml. Under sterile conditions, 55 µl of diluted cells per well were added to a black, clear bottomed 384-well lidded plate (BD Biosciences, Bedford, MA, USA) with a Multidrop liquid handler (Thermo Scientific, Barrington, IL, USA). Incubation times, compound additions and plate read were as per the trypanosome viability assay, with the exception that Alamar Blue was diluted in HEK293 growth media before addition, and incubation of Alamar Blue at 37°C, in 5% CO2, was for 4 hours, followed by incubation at room temperature for 20 hours. The activity of compounds against HEK293 cells was used to calculate the SI of mammalian to T.b. brucei cells. The control compound for HEK293 cells was puromycin (Calbiochem, USA).
# Compounds identified from primary screening were retested against both T.b. brucei and HEK293 cells in duplicate and at varying concentrations to obtain a dose-response curve. Thus, a 5 µl sample of fresh compound stock solution (5 mM in DMSO) was cherry picked into 384-well plates and diluted 1∶10 in dilution medium (high glucose DMEM without FCS). Serial dilutions of these samples were then prepared in the same media by a Minitrak robotic liquid handler (Perkin Elmer, USA). […] A screening dose of 10.4 µM was included in the dilution series to enable reconfirmation of primary screening T.b. brucei activity.
# The DMSO working concentration in the serial dilutions was maintained at 5%, giving a final assay concentration of 0.42% DMSO, except for the 41.7 µM test compound solution, where as previously stated the corresponding DMSO concentration was 0.83% v/v. […] Therefore the 41.7 µM test compound sample with 0.83% v/v DMSO was not used in the T.b. brucei assay and thus the top test compound concentration in this assay was 20.8 µM.
# Compound activity in the retest campaign was calculated as percentage inhibition in relation to positive and negative controls, in the same manner as the primary screening campaign. The positive controls, pentamidine (2 µM final concentration) for T.b. brucei and puromycin (8 µM final concentration) for HEK293, were both screened in whole 384-well control plates. Whole 384-well plate controls were included after every batch of 20 compound plates, and were comprised of half a plate of negative control and half a plate of positive control. The negative control was the vehicle, […]. The negative control was also included in column 24 of each compound assay plate to determine signal variation from plate to plate and to calculate compound activity. The exception was the 41.7 µM compound dose used in the HEK293 assay. In these plates column 24 contained 0.83% DMSO as a negative control. A separate 384-well plate containing a 13 point dose-response of the reference compounds puromycin, pentamidine and diminazene, in triplicate, was also included per 20 compound test plate batch to estimate assay sensitivity.
# These compounds were retested as in dose for N of three replicates, as described above for both T.b. brucei and HEK293.
# [3] = test system: mammalian cell lines; conditions: cited from earlier work
smiles,measurement,setting,value
"N=C(N)c1ccc(/N=N/Nc2ccc(C(=N)N)cc2)cc1 [Diminazene, diminazene aceturate, reference compound]",Selectivity Index T.B,"[1]; HEK293 IC50 / T.b. brucei IC50, > if less than 50% activity at 75.8 µM in HEK293",>330
same,IC50,"[1]; 13 control plates, triplicate dose-response, read-out: IC50 of reference compounds, primary screening campaign",65.4 nM
same,IC50,"[1]; during rescreening of resynthesized compounds, read-out: Reference Compound Activity T.B (IC50)",121 ± 9.04 nM
same,IC50,"[1]; reference compounds, read-out: IC50 against T.b. brucei, retest screening campaign",29.5 ± 5.8 nM
same,"activity in the HEK293 assay at the doses screened, rescreening",[2],neither pentamidine nor diminazene displayed activity
same,"activity in the HEK293 assay at the doses screened, retest campaign",[2],Neither pentamidine nor diminazene displayed activity
same,reported SI,[3],692
